Data: article PMC9379910, “Chimeric Ligands of Pili and Lectin A Inhibit Tolerance, Persistence, and Virulence Factors of Pseudomonas aeruginosa over a Wide Range of Phenotypes” (ACS Infectious Diseases, 2022)

Experiments:
LecA [1] = target: T1, LecA (Pseudomonas aeruginosa, UniProt Q05097); assay: competitive fluorescence polarization (displacement of βGal-aryl-Dansyl from […] LecA); also motility-enabled binding assay
LecA [2] = target: T1, LecA; assay: competitive fluorescence polarization (displacement of βGal-aryl-Dansyl from […] LecA); assay type: binding
LecA [3] = target: T1, LecA; assay: direct fluorescence polarization titration with LecA ([…]); assay type: binding

T1 sequence (Q05097 2-122): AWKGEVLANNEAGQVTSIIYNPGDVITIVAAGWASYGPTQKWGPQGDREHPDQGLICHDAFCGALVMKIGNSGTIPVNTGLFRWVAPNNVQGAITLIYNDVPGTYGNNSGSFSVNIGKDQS

SMILES: CCCCCCCC(C)CC(C)CCO[C@@H]1O[C@H](CO)[C@@H](O[C@H]2O[C@H](CO)[C@@H](O)[C@H](O)[C@H]2O)[C@H](O)[C@H]1O (stereo partly drawn) [1a, 3,5-diMeDβM]
- IC50 (LecA [1]): 15 µM

SMILES: CCCCCCCC(C)CC(C)CCO[C@@H]1O[C@H](CO)[C@@H](O[C@@H]2O[C@H](CO)[C@@H](O)[C@H](O)[C@H]2O)[C@H](O)[C@H]1O (stereo partly drawn) [1b, 3,5-diMeDβC]
- IC50 (LecA [2]): 13 µM

SMILES: CN(C)c1cccc2c(S(=O)(=O)Nc3ccc(O[C@@H]4O[C@H](CO)[C@H](O)[C@H](O)[C@H]4O)cc3)cccc12 [βGal-aryl-Dansyl]
- Kd (LecA [3]): ~10.7 µM
